Measured values published in publication doi:10.1101/2023.10.01.560353v1 (bioRxiv, 2023).
Converted amounts (≈) assume the structure as drawn. Peptide text beside a SMILES is read from it.

System: 11 clinically relevant bacterial pathogens
Assay: MIC over the panel of pathogens
Type: cell-based
Conditions: Table S17; lowest MIC over the strains tested

CC[C@H](C)[C@H](NC(=O)[C@H](CCCCN)NC(=O)[C@@H](N)CCCNC(=N)N)C(=O)N[C@@H](CC(C)C)C(=O)NCC(=O)N[C@@H](CC(=O)O)C(=O)N[C@@H](CC(C)C)C(=O)N[C@@H](CCCCN)C(=O)N[C@@H](Cc1ccccc1)C(=O)N[C@@H](CC(C)C)C(=O)N[C@@H](CCC(=O)O)C(=O)N[C@@H](CO)C(=O)N[C@@H](CC(C)C)C(=O)N[C@@H](CCCCN)C(=O)N[C@H](C(=O)N[C@@H](Cc1ccc(O)cc1)C(=O)O)[C@@H](C)O [Anomalopterin-1] (H-RKILGDLKFLESLKTY-OH)
MIC (lowest MIC value obtained in the antimicrobial activity assays): 64000 mM (≈ 123000 mg/mL)

CC[C@H](C)[C@H](NC(=O)[C@H](CC(C)C)NC(=O)[C@@H](NC(=O)[C@H](CCCCN)NC(=O)[C@H](Cc1c[nH]c2ccccc12)NC(=O)[C@@H](NC(=O)[C@H](CCCCN)NC(=O)[C@H](CC(=O)O)NC(=O)[C@@H](NC(=O)[C@H](CC(C)C)NC(=O)[C@H](Cc1ccccc1)NC(=O)[C@H](C)NC(=O)CNC(=O)[C@@H](NC(=O)[C@@H](N)CCCCN)C(C)C)C(C)C)C(C)C)[C@@H](C)O)C(=O)O [Anomalopterin-2] (H-KVGAFLVDKVWKTLI-OH)
MIC (lowest MIC value obtained in the antimicrobial activity assays): 32000 mM (≈ 54900 mg/mL)

CC[C@H](C)[C@H](N)C(=O)N[C@@H](CC(C)C)C(=O)N[C@@H](CC(C)C)C(=O)N[C@H](C(=O)N[C@H](C(=O)N[C@@H](C)C(=O)N[C@H](C(=O)N[C@@H](C)C(=O)N[C@H](C(=O)N[C@@H](CCCCN)C(=O)N[C@@H](CC(C)C)C(=O)NCC(=O)N[C@@H](CC(C)C)C(=O)O)[C@@H](C)CC)[C@@H](C)CC)[C@@H](C)O)[C@@H](C)O [Ararin-1] (H-ILLTTAIAIKLGL-OH)
MIC (lowest MIC value obtained in the antimicrobial activity assays): 32000 mM (≈ 42900 mg/mL)

CC[C@H](C)[C@H](NC(=O)[C@H](CCCCN)NC(=O)[C@H](CC(N)=O)NC(=O)[C@@H](NC(=O)[C@@H](NC(=O)[C@H](Cc1c[nH]c2ccccc12)NC(=O)[C@H](CC(C)C)NC(=O)[C@H](CCC(N)=O)NC(=O)[C@H](CC(C)C)NC(=O)[C@@H](NC(=O)[C@H](C)NC(=O)[C@H](CC(C)C)NC(=O)[C@@H](N)CCCNC(=N)N)[C@@H](C)O)[C@@H](C)O)[C@@H](C)CC)C(=O)N[C@H](C(=O)N[C@@H](CCCCN)C(=O)N[C@@H](CCC(N)=O)C(=O)N[C@@H](CC(C)C)C(=O)N[C@@H](CCSC)C(=O)N[C@H](C(=O)N1CCC[C@H]1C(=O)N[C@@H](CC(C)C)C(=O)N[C@@H](CC(N)=O)C(=O)N[C@@H](CCCCN)C(=O)N1CCC[C@H]1C(=O)NCC(=O)N[C@@H](Cc1c[nH]cn1)C(=O)N[C@@H](CCCCN)C(=O)O)[C@@H](C)CC)[C@@H](C)O [Ararin-2] (H-RLATLQLWTINKITKQLMIPLNKPGHK-OH)
MIC (lowest MIC value obtained in the antimicrobial activity assays): 16000 mM (≈ 50500 mg/mL)

CC[C@H](C)[C@H](NC(=O)[C@H](CC(C)C)NC(=O)[C@H](Cc1c[nH]cn1)NC(=O)[C@@H](NC(=O)[C@H](CC(C)C)NC(=O)[C@H](CC(C)C)NC(=O)[C@H](Cc1c[nH]cn1)NC(=O)CN)[C@@H](C)CC)C(=O)NCC(=O)N[C@@H](CCCCN)C(=O)N[C@@H](C)C(=O)N[C@H](C(=O)N[C@@H](CC(C)C)C(=O)N[C@@H](C)C(=O)N[C@@H](CC(C)C)C(=O)O)[C@@H](C)O [Arctoterin-1] (H-GHLLIHLIGKATLAL-OH)
MIC (lowest MIC value obtained in the antimicrobial activity assays): 64000 mM (≈ 100000 mg/mL)

CC[C@H](C)[C@H](NC(=O)[C@H](Cc1ccccc1)NC(=O)[C@H](CC(N)=O)NC(=O)[C@@H](NC(=O)[C@@H](NC(=O)[C@H](Cc1c[nH]cn1)NC(=O)[C@@H](N)CC(C)C)[C@@H](C)O)[C@@H](C)CC)C(=O)N[C@H](C(=O)N[C@@H](CCCCN)C(=O)N[C@@H](CO)C(=O)N[C@@H](CC(C)C)C(=O)N[C@@H](CC(C)C)C(=O)N[C@@H](CC(C)C)C(=O)O)[C@@H](C)CC [Bisonin-1] (H-LHTINFIIKSLLL-OH)
MIC (lowest MIC value obtained in the antimicrobial activity assays): 16000 mM (≈ 24400 mg/mL)

CC[C@H](C)[C@H](NC(=O)[C@H](CCCCN)NC(=O)[C@@H](NC(=O)[C@H](Cc1c[nH]c2ccccc12)NC(=O)[C@@H](N)CCCCN)[C@@H](C)O)C(=O)N[C@@H](Cc1ccc(O)cc1)C(=O)N[C@@H](CC(C)C)C(=O)N1CCC[C@H]1C(=O)N[C@@H](CC(C)C)C(=O)N[C@@H](CC(C)C)C(=O)N[C@@H](CC(C)C)C(=O)N1CCC[C@H]1C(=O)N[C@@H](CC(C)C)C(=O)O [Bisonin-2] (H-KWTKIYLPLLLPL-OH)
MIC (lowest MIC value obtained in the antimicrobial activity assays): 8000 mM (≈ 12800 mg/mL)

CC[C@H](C)[C@H](NC(=O)[C@H](CCCCN)NC(=O)[C@H](CC(C)C)NC(=O)[C@H](Cc1c[nH]cn1)NC(=O)[C@@H](N)CC(C)C)C(=O)N[C@@H](CC(C)C)C(=O)N[C@@H](CCCCN)C(=O)N[C@H](C(=O)N[C@H](C(=O)N[C@@H](CCCNC(=N)N)C(=O)N[C@@H](CC(C)C)C(=O)N[C@@H](CC(C)C)C(=O)O)[C@@H](C)CC)[C@@H](C)CC [Elephasin-1] (H-LHLKILKIIRLL-OH)
MIC (lowest MIC value obtained in the antimicrobial activity assays): 4000 mM (≈ 5890 mg/mL)

CC(C)C[C@H](NC(=O)[C@H](CC(C)C)NC(=O)[C@@H](NC(=O)[C@H](CCCNC(=N)N)NC(=O)[C@H](C)NC(=O)[C@H](Cc1ccccc1)NC(=O)[C@H](CCCNC(=N)N)NC(=O)[C@H](CO)NC(=O)[C@H](Cc1c[nH]c2ccccc12)NC(=O)[C@H](CCCNC(=N)N)NC(=O)[C@H](CC(C)C)NC(=O)[C@H](CCCCN)NC(=O)[C@H](CC(C)C)NC(=O)[C@@H](N)Cc1ccccc1)C(C)C)C(=O)O [Equusin-1] (H-FLKLRWSRFARVLL-OH)
MIC (lowest MIC value obtained in the antimicrobial activity assays): 1000 mM (≈ 1810 mg/mL)

CC[C@H](C)[C@H](NC(=O)[C@H](Cc1ccc(O)cc1)NC(=O)[C@H](C)NC(=O)[C@@H](N)CCCNC(=N)N)C(=O)N[C@@H](CS)C(=O)N[C@@H](CCCNC(=N)N)C(=O)N[C@@H](CCCCN)C(=O)N[C@@H](CCCCN)C(=O)N[C@@H](Cc1ccccc1)C(=O)N[C@@H](CC(C)C)C(=O)N[C@@H](CO)C(=O)N[C@@H](CC(C)C)C(=O)N[C@@H](CCCNC(=N)N)C(=O)N[C@@H](CCCCN)C(=O)N[C@@H](C)C(=O)N[C@@H](CO)C(=O)N[C@H](C(=O)N[C@@H](CCCCN)C(=O)N[C@@H](CC(C)C)C(=O)N[C@@H](CCC(N)=O)C(=O)N[C@@H](CO)C(=O)N[C@@H](CC(C)C)C(=O)N[C@H](C(=O)N[C@@H](CCCNC(=N)N)C(=O)N[C@@H](CCSC)C(=O)N[C@@H](CCCCN)C(=O)O)C(C)C)[C@@H](C)CC [Equusin-2] (H-RAYICRKKFLSLRKASIKLQSLVRMK-OH)
MIC (lowest MIC value obtained in the antimicrobial activity assays): 8000 mM (≈ 25100 mg/mL)

CC[C@H](C)[C@H](NC(=O)[C@H](CC(C)C)NC(=O)[C@H](CCCNC(=N)N)NC(=O)[C@H](Cc1c[nH]c2ccccc12)NC(=O)[C@H](CC(C)C)NC(=O)[C@@H](NC(=O)[C@H](CCCNC(=N)N)NC(=O)[C@H](CCC(N)=O)NC(=O)[C@H](Cc1ccc(O)cc1)NC(=O)[C@H](CC(C)C)NC(=O)[C@@H](N)CCCCN)[C@@H](C)CC)C(=O)N[C@@H](CO)C(=O)N[C@@H](CCC(=O)O)C(=O)N[C@@H](CC(C)C)C(=O)O [Equusin-3] (H-KLYQRILWRLISEL-OH)
MIC (lowest MIC value obtained in the antimicrobial activity assays): 4000 mM (≈ 7320 mg/mL)

CC[C@H](C)[C@H](NC(=O)[C@H](CCCNC(=N)N)NC(=O)[C@H](Cc1c[nH]cn1)NC(=O)[C@H](CCCCN)NC(=O)[C@@H](NC(=O)CNC(=O)[C@H](CCCNC(=N)N)NC(=O)[C@H](C)NC(=O)[C@H](CCCCN)NC(=O)[C@@H](NC(=O)[C@H](C)NC(=O)[C@@H]1CCCN1C(=O)[C@H](CC(C)C)NC(=O)[C@H](CCC(N)=O)NC(=O)[C@H](CO)NC(=O)[C@H](Cc1ccccc1)NC(=O)[C@H](CC(C)C)NC(=O)[C@H](CC(C)C)NC(=O)[C@@H](NC(=O)[C@@H](N)CS)C(C)C)C(C)C)[C@@H](C)O)C(=O)N[C@@H](CCCCN)C(=O)N[C@@H](Cc1c[nH]c2ccccc12)C(=O)N[C@@H](CC(N)=O)C(=O)N[C@@H](CCCNC(=N)N)C(=O)N[C@@H](CCCCN)C(=O)O [Equusin-4] (H-CVLLFSQLPAVKARGTKHRIKWNRK-OH)
MIC (lowest MIC value obtained in the antimicrobial activity assays): 16000 mM (≈ 47200 mg/mL)

CC[C@H](C)[C@H](NC(=O)[C@H](Cc1c[nH]cn1)NC(=O)[C@@H](N)CC(C)C)C(=O)NCC(=O)N[C@@H](CC(C)C)C(=O)N[C@H](C(=O)N[C@@H](CCCCN)C(=O)N[C@H](C(=O)N[C@@H](Cc1ccc(O)cc1)C(=O)N[C@@H](CC(C)C)C(=O)NCC(=O)N[C@@H](CO)C(=O)N[C@@H](Cc1ccccc1)C(=O)N[C@@H](C)C(=O)N[C@@H](CC(C)C)C(=O)O)[C@@H](C)O)[C@@H](C)CC [Eudyptin-1] (H-LHIGLIKTYLGSFAL-OH)
MIC (lowest MIC value obtained in the antimicrobial activity assays): 64000 mM (≈ 105000 mg/mL)

CC[C@H](C)[C@H](NC(=O)[C@@H](NC(=O)[C@H](Cc1c[nH]c2ccccc12)NC(=O)[C@H](CCCCN)NC(=O)[C@@H](N)CCCCN)C(C)C)C(=O)N[C@@H](CCCCN)C(=O)N[C@@H](CO)C(=O)N[C@H](C(=O)N[C@H](C(=O)N[C@@H](Cc1ccccc1)C(=O)N[C@@H](Cc1ccccc1)C(=O)N[C@@H](CCCCN)C(=O)O)C(C)C)C(C)C [Hesperelin-2] (H-KKWVIKSVVFFK-OH)
MIC (lowest MIC value obtained in the antimicrobial activity assays): 8000 mM (≈ 12100 mg/mL)

CC[C@H](C)[C@H](NC(=O)CNC(=O)[C@H](Cc1c[nH]cn1)NC(=O)[C@H](CC(N)=O)NC(=O)[C@H](CCCCN)NC(=O)[C@H](CCC(N)=O)NC(=O)[C@@H](N)CCCNC(=N)N)C(=O)N[C@@H](Cc1c[nH]cn1)C(=O)N[C@@H](Cc1ccccc1)C(=O)N[C@@H](CCCNC(=N)N)C(=O)N[C@H](C(=O)N[C@@H](CC(C)C)C(=O)N[C@@H](C)C(=O)N[C@@H](CCCCN)C(=O)N[C@@H](C)C(=O)N[C@@H](CC(C)C)C(=O)N[C@@H](CCCNC(=N)N)C(=O)O)C(C)C [Hesperelin-3] (H-RQKNHGIHFRVLAKALR-OH)
MIC (lowest MIC value obtained in the antimicrobial activity assays): 64000 mM (≈ 131000 mg/mL)

CC[C@H](C)[C@H](N)C(=O)N[C@H](C(=O)NCC(=O)N[C@@H](CC(N)=O)C(=O)N[C@H](C(=O)N[C@@H](Cc1ccccc1)C(=O)NCC(=O)N[C@@H](Cc1ccccc1)C(=O)N[C@@H](CCCCN)C(=O)N[C@@H](C)C(=O)N[C@@H](CC(C)C)C(=O)N[C@@H](CCCNC(=N)N)C(=O)N[C@@H](C)C(=O)N[C@@H](CC(C)C)C(=O)N[C@@H](CCCNC(=N)N)C(=O)N[C@@H](CC(C)C)C(=O)O)C(C)C)C(C)C [Hesperelin-4] (H-IVGNVFGFKALRALRL-OH)
MIC (lowest MIC value obtained in the antimicrobial activity assays): 64000 mM (≈ 114000 mg/mL)
